Experimental data from US20050100588A1, “Self-adhesive matrix plaster containing an active ingredient and based on polyurethane gels” (Beiersdorf AG, priority 2001, published 2005).

Assay: Active ingredient release of NVA to pig's skin
Assay type: in vitro ADME
Settings: pig's skin, 2, 4, 6, 8 and 24 hours, FIG. 7
Description: For investigating the release characteristics, specimens on pig's skin are prepared and the release is determined quantitatively after 24 hours.
In order to investigate the release characteristics, samples on pig's skin are prepared and the release is determined quantitatively after 2, 4, 6, 8 and 24 hours. […] From this it is clear that the active ingredient is delivered in a controlled, sustained manner into the skin to develop its activity there.

CCCCCCCCC(=O)NCc1ccc(O)c(OC)c1 [NVA, Nonivamide]
quantity of NVA released in total to epidermis and dermis, course over time: uniform, linear increase
